# According to PubChem BioAssay (NCI):
#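 How tested: cells in 96-well plates exposed to compound for 48 hours at five concentrations. At the GI50, growth is halved. TGI marks complete inhibition of growth.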
# What was measured:
# Experiment in all cases: NCI tumour cell line growth inhibition, 48 h
# [1] = test system: SK-MEL-5 melanoma
# [2] = test system: HOP-62 NSCLC
# [3] = test system: NCI-H460 lung
# [4] = test system: UACC-62 melanoma
# [5] = test system: COLO 205 colon
# [6] = test system: SK-OV-3 ovarian
# [7] = test system: LOX IMVI melanoma
# [8] = test system: ACHN renal
# [9] = test system: U251 CNS
# [10] = test system: OVCAR-5 ovarian
# [11] = test system: NCI-H522 lung
SMILES,TGI [1] [µM],TGI [2] [µM],TGI [3] [µM],TGI [4] [µM],TGI [5] [µM],TGI [6] [µM],TGI [7] [µM],TGI [8] [µM],TGI [9] [µM],TGI [10] [µM],TGI [11] [µM],GI50 [2] [µM],GI50 [9] [µM],GI50 [10] [µM],GI50 [3] [µM],GI50 [11] [µM],GI50 [4] [µM],GI50 [5] [µM],GI50 [7] [µM],GI50 [6] [µM]
Nc1ccn(C2C=C(CO)C(O)C2O)c(=O)c1 (stereo unspecified),> 625,> 625,> 625,> 625,> 625,> 625,> 625,,,,,,,,,,,,,
O=C(Nc1nc2ccc([N+](=O)[O-])cc2s1)C(=O)C(C(=O)c1ccccc1F)C1OC(=O)c2ccccc21 (stereo unspecified),> 100,> 100,> 100,> 100,62.4,93.7,> 100,> 100,41.3,> 100,51.8,,,,,,,,,
CCN(CC)c1ccc2cc(C(=O)Nc3ccc4[nH]c(C(=O)N5C[C@@H](CCl)c6c5cc(OC(=O)Nc5ccccc5)c5[nH]cc(C)c65)cc4c3)oc2c1,> 1000,,,,> 1000,,,,235,633,> 1000,104,92.7,264,39.4,438,44.5,> 1000,295,
N#C[C@H](OC1OC(COC2OC(CO)C(O)C(O)C2O)C(O)C(O)C1O)c1ccccc1 (stereo partly specified),> 250,> 250,> 250,> 250,> 250,> 250,> 250,,> 250,> 250,> 250,,,,,,,,,
O=c1ssc(=Nc2ccccc2)n1-c1ccccc1,> 100,46.5,> 100,> 100,66.4,> 100,50.6,31.1,50,> 100,,,,,,,,,,
CCCCn1c(N)c(-c2nc3ccccc3o2)sc1=S,34.9,39.9,42.6,31.9,> 100,40.8,,23.3,33,53.6,31.5,,,,,,,,,
Cn1c(=O)c2[nH]c(CCNC(=O)c3ccccc3)nc2n(C)c1=O,> 100,> 100,> 100,> 100,,,> 100,> 100,> 100,> 100,> 100,,,,,,,,,
Cc1ccc(C2OC(COCc3ccc(Cl)cc3)C(OCc3ccc(Cl)cc3)C2O)cc1 (stereo unspecified),25.9,,14.9,18.7,> 100,15.3,,41.8,34.2,> 100,,,,,,,,,,
C[N+](C)(C)CCc1ccccc1,> 100,> 100,> 100,> 100,> 100,> 100,> 100,> 100,> 100,> 100,> 100,,,,,,,,,
Cc1cc(S(=O)(=O)Nc2nc3ccccc3nc2-c2cccc([N+](=O)[O-])c2)c(S)cc1Cl,28.4,39.2,35.3,31.8,31.5,34,,64.3,38.6,88.4,38.9,,,,,,,,,
O=C1OC2(CC1C1(O)C3CC4CC(C3)CC1C4)C1CC3CC(C1)CC2C3 (stereo unspecified),> 100,,> 100,> 100,,,> 100,> 100,,,,,,,,,,,,
O=C1C(Cl)=C(Nc2ccc(S(=O)(=O)O)cc2)C(=O)c2ccccc21,28,> 100,> 100,> 100,75.6,,80,45.8,> 100,> 100,33.5,,,,,,,,,
COc1nc(=O)n(COC(CO)CN2C(=O)c3ccccc3C2=O)cc1Cc1cccc(OCc2ccccc2)c1 (stereo unspecified),30.5,,,28.5,37.4,90.6,41.5,59.8,51.8,,,,,,,,,,,
CO/N=C(/C)c1ccc(NC(=O)CSc2nnc(-c3ccncc3)n2-c2ccccc2)cc1,,,,,> 100,> 100,,,> 100,> 100,,,3.22,> 100,,,,> 100,,3.34
OCCNCCN1CCN(CCCN2c3ccccc3Sc3ccc(C(F)(F)F)cc32)CC1,> 100,38.1,44.7,41.2,32.4,77.9,28.5,43.2,35.8,43.5,36.6,,,,,,,,,
O=C1C=CC2(C=C1)O[C@H](Cc1ccccc1)[C@@H](Cc1ccccc1)O2,1.76,3.63,30.8,4.05,2.99,13.7,0.824,0.958,2.86,1.34,0.42,,,,,,,,,
C=CC1(NC(=O)c2ccccc2)CCC(C(C)(C)C)CC1 (stereo unspecified),43.9,> 90.5,> 92.3,97.8,43.2,> 100,39.3,,53.8,> 100,94,,,,,,,,,
CCCNC(=O)C(C)C1CCC2(C)C=CC(=O)C(C)=C2C1O (stereo unspecified),> 100,> 100,> 100,> 100,> 100,> 100,> 100,,> 100,> 100,> 100,,,,,,,,,
